Laboratory results published in patent US20140323575A1, “TYROSINE ISOMERS AS THERAPEUTIC AGENTS” (CONSEJO NACIONAL DE INVESTIGACIONES CIENTIFICAS Y TECNICAS …, priority 2011, published 2014).

Tests used:
LB tumor cells [1] = assay: In vitro LB tumor cell proliferation ([3H]-thymidine uptake); assay type: cell-based, mice; settings: even with high concentrations
Experimental: (§1) Each point (percentage of cpm incorporated by LB cells as compared with the control) represents the mean±SE of 3 experiments. Significance versus control, meta-tyrosine and peak 2: P<0.001 at >2.75 μg/mL; peak 2: P<0.05 at 2.75 μg/mL. ortho-tyrosine P<0.001 at 500 to 125 μg/mL; P<0.002 at 30 μg/mL. Peak 3: P<0.002 and P<0.01, at 31 and 15.5 μg/mL, respectively. Rescue of in vitro LB tumor inhibition mediated by meta-tyrosine (150 μg/mL)(B) or ortho-tyrosine (150 μg/mL) (C) by co-culturing with 150 μg/mL of individual protein amino acids. Each value represents the mean±SE of 8 to 18 determinations for (B) and 4 to 9 determinations for (C). a, P<0.01; c, P<0.001 versus meta- or ortho-tyrosine. Data with saline was similar to data obtained with each amino acid alone.
Fractionation of serum from mice bearing a subcutaneous LB tumor (size≧2,000 mm^3) was carried out through several steps of purification (FIG. 1). Serum from normal mice was similarly fractioned as control. At all stages of the purification, the presence of the inhibitory factor was monitored by the [^3H]-thymidine uptake assay as a measure of LB tumor cell proliferation. First, serum was decomplemented and subjected to dialysis. The inhibitory factor was recovered only in the dialyzable fraction (MW<12,500 Da) and was then concentrated by lyophilization and applied successively to Sephadex G-25 and G-15 chromatographic columns, where activity was recovered at fractions corresponding to a molecular weight below 1,000 Da. These fractions were lyophilized and further purified with an HPLC column C18 in a gradient of acetonitrile in TFA (first HPLC). In 12 similar and independent experiments, growth inhibitory activity was systematically recovered in only 1 fraction eluted at near 20% acetonitrile (FIG. 2).
To test directly whether a “cocktail” of amino acids similar to that detected close to the “primary site” was more counteracting of the antitumor effects produced by m- and o-tyrosine than a “secondary site cocktail,” different concentrations of a mixture of m-tyrosine and o-tyrosine (ratio 1:1) were assayed on LB tumor cell proliferation, alone or together with a primary or a secondary site cocktail of amino acids.

LB tumor cells [2] = assay: Rescue of in vitro LB tumor inhibition mediated by m- or o-tyrosine by co-culturing with amino acids; assay type: cell-based, mice; settings: co-culture with m- or o-tyrosine
Experimental: as §1

[3] = test system: inhibitory activity present in serum from LB tumor-bearing mice; assay: Titer of growth-inhibitory activity in serum from drug-treated LB tumor-bearing mice; assay type: in vivo; settings: for effect on serum inhibitory activity of LB tumor-bearing mice: treatment of LB tumor-bearing mice
LB tumor = assay: In vivo growth of s.c. LB tumor implants (primary, secondary under CR, established, ascitic); design: species or system mice
Experimental: Twenty mice received an s.c. implant of 1×10^6 LB cells in the right flank, and, 7 days later, an s.c. secondary implant of 1×10^5 LB tumor cells in the left flank. […] The remaining 10 mice received 0.2 mL of phenylalanine (500 μg/mL) at the site of the secondary implant, daily, for 8 days, starting 1 hour after the secondary inoculum [CR+Phe (-□-)]. Controls were 10 mice receiving 1×10^5 LB tumor cells in the left flank only [control (-Δ-)]. A fourth group received the tumor inoculum in the left flank but also meta-tyrosine at the site of tumor implant (0.2 mL of 500 μg/mL, n=10) or by the intraperitoneal route (0.5 mL of 1,000 μg/mL, n=6), daily, for 8 days, starting 1 hour after tumor inoculum [control+m-Tyr: (-▴-)]. A fifth group received the tumor inoculum in the left flank and also meta-tyrosine (0.2 mL of 500 μg/mL, n=5) at the site of tumor growth, daily for 5 days, starting (see arrow) when LB was an established tumor measuring 60 to 70 mm^3 [est. LB+m-Tyr: (-X-)]. Abscissa, days after tumor implant in the left flank. Ordinate, volume of the tumors implanted in the left flank. CR and control+m-Tyr versus control: P<0.001 at day 9 and P<0.002 at days 5 and 7; CR and control+m-Tyr versus CR+Phe: P<0.001 at days 5, 7 and […]; est. LB+m-Tyr versus control and CR+Phe: P<0.002 at day 9. Control+tyrosine or saline, control; CR+tyrosine or saline, CR. FIG. 6B is a microscopic view showing many tumor cells expressing Ki-67 protein in both CR+phenylalanine (B1) and control (B2) groups and few tumor cells expressing Ki-67 in both CR (B3) and control+meta-tyrosine (B4) groups (H×400). FIG. 6C illustrates a representative experiment showing the frequency distribution histogram of viable LB cells from a control tumor (C1), from a secondary tumor inhibited by CR (C2), and from a tumor inhibited by periodic intraumoral injection of meta-tyrosine (C3). Samples of tumor cells were collected 9 days after the s.c. inoculation of 1×10^5 LB tumor cells.

MC-C tumor = assay: In vivo growth of s.c. MC-C fibrosarcoma implants; design: species or system mice; settings: secondary MC-C implant in primary tumor-bearing mice, 0.2 ml of 500 μg/ml daily for 19 days at the site
Experimental: Twelve mice received a s.c. implant of 5×10^6 MC-C tumor cells in the right flank and 25 days later they received a secondary implant of 2×10^6 MC-C tumor cells in the left flank. […] The remaining 6 mice received 0.2 ml of phenylalanine (500 μg/ml) at the site of the secondary implant, daily, for 19 days, starting 1 hour later than the secondary implant. These secondary implants grew as in 6 controls only receiving the implant in the left flank (tumor volumes of secondary tumor+phenylalanine and of controls, 20 days after the implant in the left flank were =680±152 mm^3 and 524±88 mm^3, respectively). […] Significance: Secondary tumor vs. control: p<0.01; vs. secondary tumor+phenylalanine: p<0.02. Control+m-tyrosine vs. control and vs. secondary tumor+phenylalanine: p<0.02.

CEI tumor = assay: In vivo growth of s.c. CEI epidermoid carcinoma implants; design: species or system mice; settings: secondary CEI implant in primary tumor-bearing mice, 0.2 ml of 500 μg/ml daily for 19 days at the site
Experimental: Twelve mice received a s.c. implant of 1×10^6 CEI tumor cells in the right flank and 28 days later they received a secondary implant of 3×10^5 CEI tumor cells in the left flank. […] The remaining 6 mice received 0.2 ml of phenylalanine (500 μg/ml) at the site of the secondary implant, daily, for 19 days, starting 1 hour later than the secondary implant. These secondary implants grew as in 6 controls only receiving the implant in the left flank (tumor volumes of secondary tumor+phenylalanine and of controls, 20 days after the implant in the left flank were 358±38 mm^3 and 373±93 mm^3, respectively). […] Significance: Secondary tumor and control+m-tyrosine vs. control: p<0.01; vs. secondary tumor+phenylalanine: p<0.001.

ERK1 and ERK2 = assay: Western blot of p-ERK 1/2 in LB tumor cells; assay type: cell-based, mice; settings: added together with m-tyrosine, 250 μg/mL each, 3 minutes
Experimental: (§2) FIG. 8 illustrates the effect of meta-tyrosine on the expression of phosphorylated (p)-Erk 1/2 and p-STAT3 in LB tumor cells using Western blot: 3×10^5 LB tumor cells in 0.1 mL of medium were cultured in the presence of 0.1 mL of meta-tyrosine (m-Tyr; 250 μg/mL), phenylalanine (Phe, 250 μg/mL), meta-tyrosine (250 μg/mL)+phenylalanine (250 μg/mL), or saline for 3 minutes (to measure p-ERK 1/2) or for 8 hours (to measure p-STAT3). Positive control was obtained by treating LB cells with pervanadate. Controls with acting, total ERK 1/2, and total STAT3 were also added. FIG. 8A illustrates a representative experiment showing p-ERK 1/2 expression. FIG. 8B is a histogram showing the mean of 5 experiments; a, P<0.01 versus saline and versus meta-tyrosine+phenylalanine; P<0.02 versus phenylalanine. FIG. 8C illustrates a representative experiment showing p-STAT3 expression. […]
(§3) On this basis, we analyzed, first, the effect of m-tyrosine on ERK1 and ERK2 as 2 examples of protein kinases that are activated by the mitogen activated protein/extracellular signal-regulated kinase (MAP/ERK) signal transduction pathway that normally couples intracellular responses associated with cell proliferation, to the binding of growth factors to cell surface receptors (Kohno M, and Pouyssegur J. 2006. Targeting the ERK signaling pathway in cancer therapy. Ann Med; 38:200-211). […]

STAT3 = assay: Western blot of p-STAT3 in LB tumor cells; assay type: cell-based, mice; settings: added together with m-tyrosine, 250 μg/mL each, 8 hours
Experimental: as §2, §3

[4] = serum of mice bearing s.c. LB tumor >2,000 mm^3, agent i.p. 48 and 24 hours before testing, titer = reciprocal of serum dilution producing 50% inhibition of [3H]thymidine uptake by LB cells

N[C@@H](Cc1ccc(O)cc1)C(=O)O [tyrosine, 4-hydroxyphenylalanine]
effect on LB cells in vitro (LB tumor cells [1]): innocuous
counteracting of the inhibitory effect produced by m- and o-tyrosine (LB tumor cells [2]): did not reduce

COC(=O)[C@@H](N)CCCNC(=N)N[N+](=O)[O-] [L-NAME]
GIU50/mL (X ± SE) [3, 4]: 266 ± 34 GIU50/mL
effect on serum inhibitory activity of LB tumor-bearing mice [3]: did not reduce

Nc1ccn([C@@H]2O[C@H](CO)[C@@H](O)C2(F)F)c(=O)n1 [Gemcitabine, gemcitabine]
GIU50/mL (X ± SE) [3, 4]: 40 ± 6 GIU50/mL
effect on serum inhibitory activity of LB tumor-bearing mice [3]: significant reduction

COc1ccc2c(c1)c(CC(=O)O)c(C)n2C(=O)c1ccc(Cl)cc1 [INDO, indomethacin]
GIU50/mL (X ± SE) ([3]; ip): 142 ± 16 GIU50/mL
effect on serum inhibitory activity of LB tumor-bearing mice [3]: significant reduction

NC(=O)CC[C@H](N)C(=O)O [glutamine]
counteracting of the inhibitory effect produced by m- and o-tyrosine (LB tumor cells [2]): counteracted

CCCCc1nc(Cl)c(CO)n1Cc1ccc(-c2ccccc2-c2nn[nH]n2)cc1 [Losartant, losartan]
GIU50/mL (X ± SE) ([3]; ip): 300 ± 30 GIU50/mL
effect on serum inhibitory activity of LB tumor-bearing mice [3]: did not reduce

C[C@@H]1C[C@H]2[C@@H]3CCC4=CC(=O)C=C[C@]4(C)[C@@]3(F)[C@@H](O)C[C@]2(C)[C@@]1(O)C(=O)CO [Dexamethasone, dexamethasone]
GIU50/mL (X ± SE) ([3]; ip): 70 ± 18 GIU50/mL

N[C@@H](Cc1c[nH]cn1)C(=O)O [histidine]
counteracting of the inhibitory effect produced by m- and o-tyrosine (LB tumor cells [2]): only counteracted the inhibitory effect produced by m-tyrosine

Catalase
GIU50/mL (X ± SE) [3, 4]: 49 ± 5 GIU50/mL
effect on serum inhibitory activity of LB tumor-bearing mice [3]: significant reduction

CN(C)CCCN1c2ccccc2Sc2ccc(Cl)cc21 [Chlorpromazine, chlorpromazine]
GIU50/mL (X ± SE) ([3]; ip): 84 ± 19 GIU50/mL
effect on serum inhibitory activity of LB tumor-bearing mice [3]: significant reduction

CC(Cc1ccc(O)c(O)c1)C(C)Cc1ccc(O)c(O)c1 (centres unmarked) [NDGA, nordihydroguaiaretic acid]
GIU50/mL (X ± SE) [3, 4]: 116 ± 14 GIU50/mL
effect on serum inhibitory activity of LB tumor-bearing mice [3]: significant reduction

N[C@@H](Cc1ccccc1)C(=O)O [phenylalanine, reference compound]
counteracting of the inhibitory effect produced by m- and o-tyrosine (LB tumor cells [2]): counteracted
expression of Ki-67 protein in tumor cells (LB tumor; control+m-tyrosine tumors or secondary implants treated with phenylalanine (FIG. 6B)): high expression
growth of secondary LB tumor implant otherwise inhibited by CR (LB tumor; periodically inoculated at the site of the secondary implant): grew similarly to controls
tumor volume of secondary tumor 20 days after the implant in the left flank (MC-C tumor): 680±152 mm^3
tumor volume of secondary tumor 20 days after the implant in the left flank (CEI tumor): 358±38 mm^3
effect on the m-tyrosine-induced reduction of ERK1/ERK2 activation (ERK1 and ERK2): reversed that effect
effect on the m-tyrosine-induced reduction of STAT3 activation (STAT3): reversed that effect

O=C1CCN(c2ccccc2)N1 [Phenidone, phenidone]
GIU50/mL (X ± SE) [3, 4]: 103 ± 19 GIU50/mL
effect on serum inhibitory activity of LB tumor-bearing mice [3]: significant reduction

CC(CN1c2ccccc2Sc2ccccc21)N(C)C (centres unmarked) [Promethazine, promethazine]
GIU50/mL (X ± SE) [3, 4]: 80 ± 9 GIU50/mL
effect on serum inhibitory activity of LB tumor-bearing mice [3]: significant reduction

N[C@@H](CCC(=O)O)C(=O)O [glutamic acid]
counteracting of the inhibitory effect produced by m- and o-tyrosine (LB tumor cells [2]): counteracted

N[C@@H](CC(=O)O)C(=O)O [aspartic acid]
counteracting of the inhibitory effect produced by m- and o-tyrosine (LB tumor cells [2]): counteracted
